These results are taken from publication PMC5563081, “Modulating Protein-Protein Interactions of the Mitotic Polo-like Kinases to Target Mutant KRAS” (Cell Chemical Biology, 2017).

One data set relates to HeLa-KRAS G12D. Briefly: GI50 for cell killing, HeLa-KRAS G12D. The following applies: Homo sapiens. The data set is classed as cell-based. On the procedure:
(§1) Five x10^4 cells were seeded on each well of 4-well coverglass Lab-Tek chambers in a volume of 800 μl. HeLa-G12D cells were induced with Doxycycline (Dox) 24h before seeding and kept in Dox for the rest of the experiment.

For a further data set, the system named is parental HeLa cells. As to the kind of experiment: Live-cell imaging of cell fate, parental HeLa. The data set is classed as cell-based, human. As to conditions: wild-type HeLa. On the procedure:
as §1
(§2) For live cell imaging analysis image sequences were viewed using ImageJ software and cell fate was analysed manually. Time spent in mitosis for different groups was compared with a Kruskal-Wallis test and Dunn's multiple comparison correction.

The next data set deals with U2OS cells. Briefly: Quantification of mitotic phenotypes by immunofluorescence. The format is cell-based, human. The following applies: 12.5 μM. On the procedure: Cells were plated on glass coverslips and incubated overnight. Cells were treated with compound diluted in medium for 24hrs. Medium was then removed and cells fixed in 20mM PIPES pH8, 20mM HEPES pH8, 5mM EGTA, 2mM MgCl, 0.2% Triton X-100 and 3.7% formaldehyde. Cells were washed in PBS containing 0.1% Tween-20 then incubated with anti-alpha tubulin antibody (Santa Cruz sc-32293) and anti-CREST antibody (Europa 90C-CS1058). Cells were washed then incubated with Alexa Fluor 568 labelled goat anti-mouse IgG (Invitrogen A11031) or Alexa Fluor 633 labelled goat anti-mouse IgG (Invitrogen A21052) and Alexa Fluor 488 goat anti-human IgG (Invitrogen A11013). Cells were washed and then mounted on glass slides in Vectashield mounting medium containing DAPI.

Data set [1] concerns the target T1, NanoLuc-PLK2 fusion protein (Homo sapiens, UniProt Q9NYY3).
T1 construct: NanoLuc fused to the N-termini of full-length human PLK1, PLK2, PLK3, PLK4 or p38α MAPK; expressed in transfected cells; host or cells: HeLa, transient, digitonin-permeabilised
As to the kind of experiment: NanoLuc thermal shift assay. The format is cell-based. The following applies: compound at 100 μM. On the procedure: (§3) HeLa cells were transfected with plasmids encoding NanoLuc fused to the N-termini of full-length human PLK1, PLK2, PLK3, PLK4 or p38α MAPK. Twenty-four h after transfection, the thermal stability of the fusion proteins was tested using a modified version of the assay protocol supplied by Promega. Briefly, cells were harvested by tyrpsinisation and centrifugation, counted, and resuspended to 200,000 cells/ml in 3mls of serum-free OptiMEM media. Cells were then permeabilised using with 50ug/ml digitonin in DMSO for 5 min and incubated with test compounds at 100uM, plus protease inhibitor cocktail (Promega G6521), in a final concentration of 5% DMSO for 1 h at 37°C. After incubation, 100 μl/well of cells were aliquoted into a 96-well, thin-walled PCR plate and then heated for 3 minutes using a pre-warmed MJ Tetrad DNA Engine set to run a temperature gradient of 42 to 66°C. The plates were then cooled to room temperature for 10 min, and then 80μl of each sample was transferred to a white-walled 96-well Nunc plate before NanoBRET™ NanoGlo Substrate diluted in Opti-MEM was added. NanoLuc enzyme activity was read out within 10 min using a BMG Clariostar plate reader.

In data set [2] the target is T2, NanoLuc-PLK3 fusion protein (Homo sapiens, UniProt Q9H4B4).
T2 construct: NanoLuc fused to the N-termini of full-length human PLK1, PLK2, PLK3, PLK4 or p38α MAPK; expressed in transfected cells; host or cells: HeLa, transient, digitonin-permeabilised
T2 sequence (Q9H4B4 whole entry, the tested form may be a part): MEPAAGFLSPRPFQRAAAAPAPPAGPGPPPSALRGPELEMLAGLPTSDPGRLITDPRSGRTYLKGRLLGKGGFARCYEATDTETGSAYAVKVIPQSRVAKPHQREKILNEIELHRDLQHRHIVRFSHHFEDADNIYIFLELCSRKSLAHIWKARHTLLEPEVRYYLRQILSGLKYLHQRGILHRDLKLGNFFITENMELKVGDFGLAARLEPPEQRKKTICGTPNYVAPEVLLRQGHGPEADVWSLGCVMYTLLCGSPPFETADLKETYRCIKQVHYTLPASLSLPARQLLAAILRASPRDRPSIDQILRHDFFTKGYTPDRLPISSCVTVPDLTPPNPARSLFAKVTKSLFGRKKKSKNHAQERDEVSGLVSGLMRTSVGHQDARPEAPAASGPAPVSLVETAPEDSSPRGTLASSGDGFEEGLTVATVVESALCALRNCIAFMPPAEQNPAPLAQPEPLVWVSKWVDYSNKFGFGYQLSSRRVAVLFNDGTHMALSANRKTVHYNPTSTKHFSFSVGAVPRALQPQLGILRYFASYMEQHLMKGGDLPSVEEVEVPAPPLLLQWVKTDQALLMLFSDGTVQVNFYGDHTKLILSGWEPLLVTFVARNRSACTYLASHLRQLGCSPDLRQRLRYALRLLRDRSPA
Briefly: NanoLuc thermal shift assay. The format is cell-based. The following applies: compound at 100 μM. On the procedure: as §3

For data set [3], the system named is HeLa cells expressing KRAS G12D. Briefly: Live-cell imaging of cell fate, HeLa KRAS G12D. The format is cell-based, human. As to conditions: Poloppin at GI50 dose, 3% in DMSO controls. On the procedure:
as §1, §2

Another data set deals with MEFs KRAS MUT p53 MUT. Briefly: Cell viability in MEFs, KRAS MUT p53 MUT. The format is cell-based. The following applies: Mus musculus. As for the experimental part: KrasWT mouse embryonic fibroblasts (MEFs) were derived from conditional LSL-Trp53^R172H/+ embryos. LSL-Trp53^R172H/+, LSL-Kras^G12D/+ ([Hingorani et al., 2005]) strains were interbred to obtain LSL-Kras^G12D/+, LSL-Trp53^R172H/+ Kras^G12D embryos for MEF preparation. Briefly, MEFs were derived from E13.5 embryos after decapitation and evisceration. Finely minced tissue was passed through a 16-G needle two or three times before dissociated cells were cultured in DMEM with 10% FBS. Cre-mediated recombination to activate the Kras^G12D allele was induced via addition of 500nM 4-OH Tamoxifen to the culture media overnight.

The test system of data set [4] is HCT116 BI 2536-Res. Clones. Briefly: Viability of BI 2536-resistant HCT116 clones. The format is cell-based, human. As for the experimental part:
Viability is represented as percentage survival normalised to DMSO control. […] PCR reactions were carried out using Amplitaq Gold polymerase (Applied Biosystems N8080241) with a 25-cycle programme. […] Prepared samples were submitted for next generation sequencing using MiSeq Nano run with Nextera XT library preparation. Sequencing and subsequent bioinformatics were performed by Cambridge Genomic Services (University Of Cambridge).

A short description of data set [5]: Pharmacokinetic study, oral administration in mice. The data set is classed as in vivo, mouse. On the procedure:
Mice were dosed orally with 10mg/kg Poloppin-II, and blood samples were taken from 3 mice per time point, and frozen until all samples were available. Plasma was prepared from each sample and Poloppin-II levels analysed by a pre-established methodology (UHPLC-TOF MS using electrospray ionisation).

Data set [6] in a line: Tolerability and body weight in the xenograft study. The format is in vivo, mouse. The following applies: 50 mg/kg oral, mice; no adverse health observations or recorded weight loss. On the procedure: Tumours were established by sub-cutaneous implantation of 2 x 10^6 HCT116 cells suspended in 50% Matrigel into the flanks of a cohort of mice. When a sufficient number of mice had developed tumours of approximately 100mm3, they were randomly assigned to three groups: Vehicle, 50mg/kg Poloppin-II or 200mg/kg Poloppin-II, with 10 mice per group. Mice were treated orally according to their treatment group once every three days. Tumour volume was measured three times per week with calipers. Body weight was measured three times per week. In addition to mice assigned to tumour volume efficacy arm of the study, 16 mice with established HCT116 xenografts were assigned to either Vehicle or 200mg/kg oral dosing groups, with 8 mice per group. 24 hours after a single dose, mice were euthanised, tumours removed, snap frozen and 30-50microgram of lysates were analysed by Western blotting on 4-12% Bis-Tris acrylamide gels, and transferred using the Invitrogen iBlot dry system. Phospho-Histone H3 was detected using Abcam antibody ab5176, beta-actin with Sigma antibody a5316. […] HRP was visualised with ECL-Plus (GE Healthcare).

Data set [7] in a line: Stability in mouse hepatocytes. The data set is classed as in vitro ADME.

T1 sequence (Q9NYY3 whole entry, the tested form may be a part): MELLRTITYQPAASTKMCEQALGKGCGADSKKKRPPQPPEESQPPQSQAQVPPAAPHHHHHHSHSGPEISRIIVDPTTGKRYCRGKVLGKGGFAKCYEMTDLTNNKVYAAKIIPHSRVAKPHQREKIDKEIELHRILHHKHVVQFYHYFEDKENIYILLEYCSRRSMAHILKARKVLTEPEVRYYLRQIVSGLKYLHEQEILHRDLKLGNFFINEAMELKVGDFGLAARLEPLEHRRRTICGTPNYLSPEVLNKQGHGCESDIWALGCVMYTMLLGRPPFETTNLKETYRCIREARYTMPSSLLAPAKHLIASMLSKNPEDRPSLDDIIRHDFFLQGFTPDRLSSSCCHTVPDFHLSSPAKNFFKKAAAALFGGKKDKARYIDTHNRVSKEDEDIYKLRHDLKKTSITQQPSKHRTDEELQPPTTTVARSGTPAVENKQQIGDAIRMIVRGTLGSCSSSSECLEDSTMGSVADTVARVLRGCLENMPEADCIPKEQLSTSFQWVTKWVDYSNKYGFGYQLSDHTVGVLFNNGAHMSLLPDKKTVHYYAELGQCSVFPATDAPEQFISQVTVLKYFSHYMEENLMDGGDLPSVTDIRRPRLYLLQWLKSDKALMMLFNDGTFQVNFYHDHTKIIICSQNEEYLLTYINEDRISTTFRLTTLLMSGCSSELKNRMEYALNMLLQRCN

On to `O=C(O)CCc1ccc(-c2ccc(Br)cc2)n1-c1ccccc1C(F)(F)F` [Poloppin], for which the GI50 in the data set with HeLa-KRAS G12D was 5 µM; in the data set with MEFs KRAS MUT p53 MUT (MEFs KRAS MUT p53 MUT), 49.5 ± 1.05 µM; with MEFs KRAS MUT p53 MUT (MEFs KRAS MUT p53 MUT+4OHT), 17.6 ± 1.22 µM; in [4] (BI2536-Res. (Mean), 72 h), “retain sensitivity”; in data set [4] (Homo sapiens, HCT-116, 72 h), 7.7 µM. Also, the “average time in mitosis” value in the data set with parental HeLa cells (Poloppin at GI50 dose (10μM), 60 min without) is 100 min. Also, the “frequency of aneuploid divisions” value in the data set with parental HeLa cells (Poloppin at GI50 dose, 4% after DMSO) is 38%. Besides, in the data set on U2OS cells, the “cells with normal metaphase chromosome alignment” value is under 5%. Further, the “thermal stability of NanoLuc-PLK2” value in data set [1] is “increases the thermal stability”. Moreover, the “thermal stability of NanoLuc-PLK3” value in data set [2] is “increases the thermal stability”. For the same molecule, the “frequency of death in mitosis” value in [3] amounted to 36%.
With `CN(C)CCNC(=O)c1ccc(-c2ccc(-c3ccc(Cl)cc3)n2-c2ccccc2C(F)(F)F)cc1` [Poloppin-II], the bioavailability in data set [5] (mouse, plasma, 10 mg/kg oral) is over 90%. The clearance in data set [5] (mouse, plasma, oral, 10 mg/kg, read-out: calculated clearance) was 17 mL/min/kg. Also, in data set [5] (mouse, plasma, oral, 10 mg/kg, read-out: volume of distribution), the Vd turned out to be 23 L/kg. Also, in data set [5] (mouse, plasma, per oral, 10 mg/kg), the half-life was 15 h. Besides, in data set [5] (single oral dose of 10 mg/kg), the “time for which plasma concentration >100 nM is maintained” value was over 24 h. Moreover, in data set [5] (single oral dose of 10 mg/kg, for >24 hr), the “in vivo plasma concentration maintained” value is given as over 100 nM. In data set [6], the “tolerability during the study” value is on record as “well tolerated”. Besides, in data set [7], the half-life was found to be 1.28 h and the hepatocyte CLint stood at 18 µL/min/1e6 cells.

Broadly, the GI50 is the concentration that inhibits growth by half. By bioavailability is commonly meant the share of a dose that reaches the circulation, judged against a reference dose that is usually intravenous. Read a high bioavailability as much systemic uptake. The half-life is how long it takes for the measured level to halve. A higher half-life goes with slow loss. For orientation: hepatocyte CLint means the capacity of the preparation to metabolise the compound, expressed as a volume cleared per time. The low end stands for greater metabolic stability, the high end for faster metabolism.
